Assay results published in patent US20130123355A1, “Fatty acids and metal ions compositions and uses thereof” (priority 2011, published 2013).

How the values were obtained:
human subjects = experiment: Montreal Cognitive Assessment and Mini-Mental State Examination; assay type: in vivo
Method: (§1) Mg-DHA composition is prepared and formulated as capsules to provide a daily dose of 150 mg of elemental magnesium. The human subjects are divided into control and test groups and provided DHA, Mg Citrate (equivalent to 150 mg of elemental magnesium) or Mg-DHA capsules for 30 consecutive days. On day 1 and day 30, two cognitive tests, Montreal Cognitive Assessment and Mini-Mental State Examination (Int J Geriatr Psychiatry. 2010 February; 25(2):111-20) are administered.
as §1, with “Mg-DHA-LysoPC” for “Mg-DHA”, “either DHA-LysoPC,” for “DHA,”, “magnesium), Mg-DHA-LysoPC” for “magnesium) or Mg-DHA”
Mg-EPA composition is prepared and formulated as capsules to provide a daily dose of 150 mg of elemental magnesium. The human subjects are divided into control and test groups and provided EPA, Mg Citrate (equivalent to 150 mg elemental magnesium), or Mg-EPA capsules for 30 consecutive days. On day 1 and day 30, two cognitive tests, Montreal Cognitive Assessment and Mini-Mental State Examination (Int J Geriatr Psychiatry. 2010 February; 25(2):111-20) are administered.
as §1, with “Zn-DHA or zinc gluconate” for “Mg-DHA”, “30” for “a daily dose of 150”, “zinc.” for “magnesium.”, “zinc gluconate,” for “Mg Citrate (equivalent to 150 mg of elemental magnesium)”, “Zn-DHA capsules, 3 times a day” for “Mg-DHA capsules”
(§2) Zn-DHA or zinc gluconate composition is prepared and formulated as capsules to provide 30 mg of elemental zinc. The human subjects are divided into control and test groups and provided DHA-LysoPC, zinc gluconate, or Zn-DHA-LysoPC capsules, 3 times a day for 30 consecutive days. On day 1 and day 30, two cognitive tests, Montreal Cognitive Assessment and Mini-Mental State Examination (Int J Geriatr Psychiatry. 2010 February; 25(2):111-20) are administered.
as §2, with “provide a daily dosage of” for “provide”, “provided EPA,” for “provided DHA-LysoPC,”, “or Zn-EPA capsules” for “or Zn-DHA-LysoPC capsules, 3 times a day”

rats = experiment: tail flick test; assay type: in vivo; settings: diet
Method: On Zn-EPA or zinc gluconate supplemented diet, rats consume about 1 mg/kg body weight/day of elemental zinc, on a feeding schedule so as to maintain 85% of its free-feeding weight.

[1] = system: Patients presenting symptoms of migraine; experiment: migraine pain relief on visual analog scale (VAS); assay type: in vivo, human; settings: reviewed after 4 hours
Method: Patients presenting symptoms of migraine are prescribed Zn-DHA or zinc gluconate capsules formulated to provide a daily dosage of 30 mg of elemental zinc. The symptoms of migraine are reviewed after 4 hours. […] For each group of patients, Excedrin is prescribed as rescue medicine.
Patients presenting symptoms of migraine are prescribed Zn-DHA-LysoPC or zinc gluconate formulated to provide a daily dosage of 30 mg of elemental zinc. The symptoms of migraine are reviewed after 4 hours. […] For each group of patients, Excedrin is prescribed as rescue medicine.
Patients presenting symptoms of migraine are prescribed Zn-EPA capsules formulated to provide a daily dosage of 30 mg of elemental Zn. The symptoms of migraine are reviewed after 4 hours. […] For each group of patients, Excedrin is prescribed as rescue medicine.

[2] = system: Patients presenting symptoms of depression; experiment: Hamilton Depression Rating scale and Beck Depression Inventory in depression; assay type: in vivo, human; settings: with standard of care
Method: Patients presenting symptoms of depression, in addition to being provided standard of care for depression, are prescribed Mg-DHA or Mg Citrate capsules formulated to provide 150 mg of elemental magnesium, or DHA capsules for two weeks when recovery from depression is assessed.
Patients presenting symptoms of depression, in addition to being provided standard of care for depression, are prescribed Mg-DHA-LysoPC or Mg Citrate capsules formulated to provide 150 mg of elemental magnesium, or DHA-LysoPC capsules for two weeks when recovery from depression is assessed.
Patients presenting symptoms of depression, in addition to being provided standard of care for depression, are prescribed Mg-EPA or Mg Citrate capsules formulated to provide 150 mg of elemental magnesium, or EPA capsules for two weeks when recovery from depression is assessed.
(§3) Patients presenting symptoms of depression, in addition to being provided standard of care for depression, are prescribed Zn-DHA or zinc gluconate capsules formulated to provide a daily dosage of 30 mg of elemental zinc, or DHA capsules for two weeks when recovery from depression is assessed.
as §3, with “Zn-DHA-LysoPC” for “Zn-DHA”, “DHA-LysoPC” for “DHA”
Patients presenting symptoms of depression, in addition to being provided standard of care for depression, are prescribed Zn-EPA or zinc gluconate capsules that provide a daily dosage of 30 mg of elemental Zn, or EPA capsules for two weeks when recovery from depression is assessed.

[3] = capsules, 150 mg elemental magnesium daily for 30 days, compared with the fatty acid alone or Mg Citrate
[4] = about 50 mg/Kg/day elemental Mg, days 0, 7, 14, 21, compared with Mg Citrate or the fatty acid alone
[5] = 150 mg elemental magnesium daily, compared with the fatty acid alone or Mg Citrate
[6] = 150 mg elemental magnesium for two weeks
[7] = capsules providing 30 mg elemental zinc, 30 consecutive days, compared with the fatty acid alone or zinc gluconate
[8] = about 1 mg/kg body weight/day elemental zinc, days 0, 7, 14, 21, compared with zinc gluconate or the fatty acid alone
[9] = 30 mg elemental zinc daily, compared with the fatty acid alone or zinc gluconate
[10] = 30 mg elemental zinc daily for two weeks, compared with the fatty acid alone or zinc gluconate

Row | SMILES | cognitive tests (Montreal Cognitive Assessment, Mini-Mental State Examination) (human subjects; [3]) | latency of tail flick reflex (rats; [4]) | pain relief on a visual analog scale (VAS) [1, 5] | Hamilton Depression Rating scale and Beck Depression Inventory scores [2, 6] | cognitive tests (Montreal Cognitive Assessment, Mini-Mental State Examination) (human subjects; [7]) | latency of tail flick reflex (rats; [8]) | pain relief on a visual analog scale (VAS) [1, 9] | Hamilton Depression Rating scale and Beck Depression Inventory scores [2, 10]
1 | CC/C=C\C/C=C\C/C=C\C/C=C\C/C=C\C/C=C\CCC(=O)[O-].CC/C=C\C/C=C\C/C=C\C/C=C\C/C=C\C/C=C\CCC(=O)[O-].[Mg+2] [Mg-DHA] | statistically significant improvement | Statistically significant increased latency | significant pain relief | statistically significant improvement | – | – | – | –
2 | CC/C=C\C/C=C\C/C=C\C/C=C\C/C=C\CCCC(=O)[O-].CC/C=C\C/C=C\C/C=C\C/C=C\C/C=C\CCCC(=O)[O-].[Mg+2] [Mg-EPA] | statistically significant improvement | Statistically significant increased latency | significant pain relief | statistically significant improvement | – | – | – | –
3 | CC/C=C\C/C=C\C/C=C\C/C=C\C/C=C\C/C=C\CCC(=O)[O-].CC/C=C\C/C=C\C/C=C\C/C=C\C/C=C\C/C=C\CCC(=O)[O-].[Zn+2] [Zn-DHA] | – | – | – | – | statistically significant improvement | Statistically significant increased latency | significant pain relief | statistically significant improvement
4 | CC/C=C\C/C=C\C/C=C\C/C=C\C/C=C\CCCC(=O)[O-].CC/C=C\C/C=C\C/C=C\C/C=C\C/C=C\CCCC(=O)[O-].[Zn+2] [Zn-EPA] | – | – | – | – | statistically significant improvement | Statistically significant increased latency | significant pain relief | statistically significant improvement
